Reference: patent US8106091B2, “Inhibitors of IKK-beta serine-threonine protein kinase” (Chroma Therapeutics Ltd., priority 2006, dated 2012)

Columns and labels:
human whole blood = test: LPS-stimulation of human whole blood, TNF-α release; assay type: cell-based; conditions: LPS 100 ng/ml, 6 hrs, inhibitor added 2 hrs before, read-out: Inhibitor activity versus human whole blood TNFα release
Experimental: LPS-Stimulation of Human Whole Blood
Whole blood was taken by venous puncture using heparinised vacutainers (Becton Dickinson) and diluted in an equal volume of RPMI1640 tissue culture media (Sigma). 100 μl was plated in V-bottomed 96 well tissue culture treated plates. 2 hrs after the addition of the inhibitor in 100 μl of RPMI1640 media, the blood was stimulated with LPS (E coli strain 005:B5, Sigma) at a final concentration of 100 ng/ml and incubated at 37° C. in 5% CO2 for 6 hrs. TNF-α levels were measured from cell-free supernatants by sandwich ELISA (R&D Systems #QTA00B)

THP-1 cells = test: LPS-stimulation of THP-1 cells, TNF-α release; assay type: cell-based; conditions: Homo sapiens, LPS 1 μg/ml, 6 hrs, inhibitor added 2 hrs before, read-out: Inhibitor activity versus THP-1 TNFα release
Experimental: LPS-Stimulation of THP-1 Cells
THP-1 cells were plated in 100 μl at a density of 4×10^4 cells/well in V-bottomed 96 well tissue culture treated plates and incubated at 37° C. in 5% CO2 for 16 hrs. 2 hrs after the addition of the inhibitor in 100 μl of tissue culture media, the cells were stimulated with LPS (E coli strain 005:B5, Sigma) at a final concentration of 1 μg/ml and incubated at 37° C. in 5% CO2 for 6 hrs. TNF-α levels were measured from cell-free supernatants by sandwich ELISA (R&D Systems #QTA00B)

IKBKB (IKKβ) = biological target: T1, IKBKB (IKKβ) (Homo sapiens, UniProt O14920); test: IKKβ enzyme assay (Z'-LYTE, Invitrogen); assay type: biochemical; conditions: ATP at or close to Km; read-out: Inhibitor activity versus IKKβ
T1 construct: purchased Invitrogen (Paisley, UK)
T1 sequence (O14920 1-756): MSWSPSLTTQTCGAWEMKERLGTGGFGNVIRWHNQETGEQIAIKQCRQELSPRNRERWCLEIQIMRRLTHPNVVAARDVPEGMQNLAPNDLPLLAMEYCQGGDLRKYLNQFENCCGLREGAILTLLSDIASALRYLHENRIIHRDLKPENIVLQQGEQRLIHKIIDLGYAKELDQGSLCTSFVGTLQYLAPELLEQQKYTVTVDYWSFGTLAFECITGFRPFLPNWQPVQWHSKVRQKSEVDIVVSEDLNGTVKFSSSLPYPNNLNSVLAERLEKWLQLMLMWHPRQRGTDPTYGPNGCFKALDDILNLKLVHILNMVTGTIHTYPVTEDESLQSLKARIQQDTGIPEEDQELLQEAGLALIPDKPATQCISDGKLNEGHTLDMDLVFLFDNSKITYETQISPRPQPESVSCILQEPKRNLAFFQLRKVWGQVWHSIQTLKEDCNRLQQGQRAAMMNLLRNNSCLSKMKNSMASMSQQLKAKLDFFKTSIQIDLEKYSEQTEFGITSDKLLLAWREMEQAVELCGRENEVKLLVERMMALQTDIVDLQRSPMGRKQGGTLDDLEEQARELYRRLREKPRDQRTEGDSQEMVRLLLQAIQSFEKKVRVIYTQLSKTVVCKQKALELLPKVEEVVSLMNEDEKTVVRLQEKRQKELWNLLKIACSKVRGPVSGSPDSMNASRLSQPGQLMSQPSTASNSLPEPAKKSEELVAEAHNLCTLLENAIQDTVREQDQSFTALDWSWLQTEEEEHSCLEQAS
Experimental: The ability of compounds to inhibit IKKβ kinase activity was measured in an assay performed by Invitrogen (Paisley, UK). The Z′-LYTE™ biochemical assay employs a fluorescence-based, coupled-enzyme format and is based on the differential sensitivity of phosphorylated and non-phosphorylated peptides to proteolytic cleavage. The peptide substrate is labelled with two fluorophores—one at each end—that make up a FRET pair. In the primary reaction, the kinase transfers the gamma-phosphate of ATP to a single serine or threonine residue in a synthetic FRET-peptide. In the secondary reaction, a site-specific protease recognizes and cleaves non-phosphorylated FRET-peptides. Phosphorylation of FRET-peptides suppresses cleavage by the Development Reagent. Cleavage disrupts FRET between the donor (i.e., coumarin) and acceptor (i.e. fluorescein) fluorophores on the FRET-peptide, whereas uncleaved, phosphorylated FRET-peptides maintain FRET. A […] method, which calculates the ratio (the Emission Ratio) of donor emission to acceptor emission after excitation of the donor fluorophore at 400 nm, is used to quantitate reaction progress.
The final 10 μL Kinase Reaction consists of 0.9-8.0 ng IKBKB (IKKβ), 2 μM Ser/Thr 05 Peptide and ATP in 50 mM HEPES pH 7.5, 0.01% BRIJ-35, 10 mM MgCl2, 1 mM EGTA. The assay is performed at an ATP concentration at, or close to the Km. After the 60 minute Kinase Reaction incubation at room temperature, 5 μL of a 1:128 dilution of Development Reagent is added. The assay plate is incubated for a further 60 minutes at room temperature and read on a fluorescence plate reader.
Duplicate data points are generated from a ⅓ log dilution series of a stock solution of test compound in DMSO. Nine dilutions steps are made from a top concentration of 10 μM, and a ‘no compound’ blank is included. Data is collected and analysed using XLfit software from IDBS. The dose response curve is curve fitted to model number 205 (sigmoidal dose-response model). From the curve generated, the concentration giving 50% inhibition is determined and reported.

IC50 (human whole blood) [nM] | IC50 (THP-1 cells) [nM] | IC50 (IKBKB (IKKβ)) [nM] | SMILES
1000 to 5000 | < 1000 | < 1000 | NC(=O)Nc1sc(-c2ccc(/C=C/C[C@H](N)C(=O)OC3CCCC3)cc2Cl)cc1C(N)=O [Example 13, Cyclopentyl (2S,4E)-2-amino-5-{4-[4-carbamoyl-5-(carbamoylamino)-2-thienyl]-3-chlorophenyl}pent-4-enoate]
> 5000 | 1000 to 5000 | < 1000 | NC(=O)Nc1sc(-c2ccc(OCCC[C@H](N)C(=O)OC3CCCC3)cc2)cc1C(N)=O [Example 3, Cyclopentyl 5-{4-[4-carbamoyl-5-(carbamoylamino)-2-thienyl]phenoxy}-L-norvalinate]
> 5000 | 1000 to 5000 | < 1000 | NC(=O)Nc1sc(-c2ccc(C#CC[C@H](N)C(=O)OC3CCCC3)cc2)cc1C(N)=O [Example 15, Cyclopentyl (2S)-2-amino-5-{4-[4-carbamoyl-5-(carbamoylamino)-2-thienyl]phenyl}pent-4-ynoate]
1000 to 5000 | < 1000 | < 1000 | NC(=O)Nc1sc(-c2ccc(OCC[C@@H](N)C(=O)OC3CCCC3)cc2)cc1C(N)=O [Example 1, Cyclopentyl O-{4-[4-carbamoyl-5-(carbamoylamino)-2-thienyl]phenyl}-D-homoserinate]
< 1000 | < 1000 | < 1000 | NC(=O)Nc1sc(-c2ccc(/C=C/C[C@@H](N)C(=O)OC3CCCC3)cc2)cc1C(N)=O [Example 10, Cyclopentyl (2R,4E)-2-amino-5-{4-[4-carbamoyl-5-(carbamoylamino)-2-thienyl]phenyl}pent-4-enoate]
1000 to 5000 | 1000 to 5000 | < 1000 | NC(=O)Nc1sc(-c2ccc(/C=C\C[C@H](N)C(=O)OC3CCCC3)cc2)cc1C(N)=O [Example 18, Cyclopentyl (2S,4Z)-2-amino-5-{4-[4-carbamoyl-5-(carbamoylamino)-2-thienyl]phenyl}pent-4-enoate]
1000 to 5000 | < 1000 | < 1000 | NC(=O)Nc1sc(-c2ccc(C[C@H](N)C(=O)OC3CCCC3)cc2)cc1C(N)=O [Example 16, Cyclopentyl 4-[4-carbamoyl-5-(carbamoylamino)-2-thienyl]-L-phenylalaninate]
> 5000 | < 1000 | < 1000 | Cc1cc(-c2cc(C(N)=O)c(NC(N)=O)s2)ccc1OCC[C@H](N)C(=O)OC1CCCC1 [Example 6, Cyclopentyl O-{4-[4-carbamoyl-5-(carbamoylamino)-2-thienyl]-2-methylphenyl}-L-homoserinate]
< 1000 | < 1000 | < 1000 | Cc1cc(-c2cc(C(N)=O)c(NC(N)=O)s2)ccc1/C=C/C[C@H](N)C(=O)OC1CCCC1 [Example 14, Cyclopentyl (2S,4E)-2-amino-5-{4-[4-carbamoyl-5-(carbamoylamino)-2-thienyl]-2-methylphenyl}pent-4-enoate]
> 5000 | 1000 to 5000 | < 1000 | NC(=O)Nc1sc(-c2ccc(OCC[C@H](N)C(=O)OC3CCCC3)c(Cl)c2)cc1C(N)=O [Example 8, Cyclopentyl O-{4-[4-carbamoyl-5-(carbamoylamino)-2-thienyl]-2-chlorolphenyl}-L-homoserinate]
> 5000 | < 1000 | < 1000 | Cc1cc(OCC[C@H](N)C(=O)OC2CCCC2)ccc1-c1cc(C(N)=O)c(NC(N)=O)s1 [Example 5, Cyclopentyl O-{4-[4-carbamoyl-5-(carbamoylamino)-2-thienyl]-3-methylphenyl}-L-homoserinate]
> 5000 | < 1000 | < 1000 | NC(=O)Nc1sc(-c2ccc(OCC[C@H](N)C(=O)OC3CCCC3)cc2Cl)cc1C(N)=O [Example 7, Cyclopentyl O-{4-[4-carbamoyl-5-(carbamoylamino)-2-thienyl]-3-chlorophenyl}-L-homoserinate]
– | 1000 to 5000 | < 1000 | NC(=O)Nc1sc(-c2ccc(OCC[C@H](N)C(=O)OC3CCCC3)cc2)cc1C(N)=O [Example 2, Cyclopentyl O-{4-[4-carbamoyl-5-(carbamoylamino)-2-thienyl]phenyl}-L-homoserinate]
– | < 1000 | < 1000 | NC(=O)Nc1sc(-c2ccc(CCC[C@@H](N)C(=O)OC3CCCC3)cc2)cc1C(N)=O [Example 12, Cyclopentyl 5-{4-[4-carbamoyl-5-(carbamoylamino)-2-thienyl]phenyl}-D-norvalinate]
– | > 5000 | < 1000 | NC(=O)Nc1cc(-c2ccc(C[C@H](N)C(=O)OC3CCCC3)cc2)sc1C(N)=O [Example 24, Cyclopentyl 4-[5-carbamoyl-4-(carbamoylamino)-2-thienyl]-L-phenylalaninate]
1000 to 5000 | < 1000 | < 1000 | NC(=O)Nc1sc(-c2ccc(CCC[C@H](N)C(=O)OC3CCCC3)cc2)cc1C(N)=O [Example 11, Cyclopentyl 5-{4-[4-carbamoyl-5-(carbamoylamino)-2-thienyl]phenyl}-L-norvalinate]
< 1000 | < 1000 | < 1000 | NC(=O)Nc1sc(-c2ccc(/C=C/C[C@H](N)C(=O)OC3CCCC3)cc2)cc1C(N)=O [Example 9, Cyclopentyl (2S,4E)-2-amino-5-{4-[4-carbamoyl-5-(carbamoylamino)-2-thienyl]phenyl}pent-4-enoate]
